Source: paper PMC11992225, “Antibacterial compounds against non-growing and intracellular bacteria” (npj Antimicrobials and Resistance, 2025)
pEC50: −log10 of the molar value. Values after ≈ are worked out from the molar mass of the structure shown. Values joined by “and” are separate entries in the source; they are usually repeats but may differ in a detail not shown here. Identical values can stand only once.

Legend:
[1] = test system: non-growing S. aureus DSM2569; assay: Dilution-regrowth assay (OD600, start-growth-time) on stationary-phase S. aureus; assay type: cell-based, Staphylococcus aureus; conditions: S. aureus; for Regrowth, OD600 at 6h or 8h after dilution into drug-free medium: average
In short: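 Non-growing S. aureus was tested in a dilution-regrowth format. Cells were cultured and treated for 24 h in 1:4 diluted CA-MHB, pH 7.4, then diluted into drug-free medium, and OD600 was measured every 20 min. Start-growth-time was the time OD600 passed 0.12. Dose-response curves were fitted with a five-parameter logistic equation to derive EC50.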

non-growing UPEC CFT073 [2] = assay: Dose-dependent killing analysis (CFU spot-plating) of stationary-phase UPEC; assay type: cell-based, Escherichia coli; conditions: E. coli in 1:4 CA-MHB (pH 7.4), individual replicates
In short: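 Killing assessed by CFU counts: overnight 37 °C LB agar spot plates (10 μl drops of 10-fold PBS dilutions) scored at the lowest dilution with distinct colonies. Samples were compound-treated non-growing UPEC CFT073, 200 μl per well. Performed as three biological replicates.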

non-growing UPEC CFT073 [3] = assay: Dilution-regrowth assay (screen, hit validation, dose-response) on stationary-phase UPEC; assay type: cell-based, Escherichia coli; conditions: average
In short: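 Regrowth (OD600 after 6 h, 37 °C) of diluted non-growing CFT073, following 24 h compound treatment of 24 h stationary cultures, defines activity relative to untreated control. Screen at 20 µM, validation at 20, 10, 5 µM (duplicates), dose–response in three biological replicates fitted by five-parameter logistic.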

P. aeruginosa DSM1117 = assay: MIC, standard microdilution assay, growing P. aeruginosa; assay type: cell-based, Pseudomonas aeruginosa; conditions: Pseudomonas aeruginosa, DSM1117; P. aeruginosa; CA-MHB pH 7.4; read-out: MIC (μM) CA-MHB
In short: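 MICs come from microdilution in CA-MHB/40 mM HEPES pH 7.4 for the UPEC, Pseudomonas and Staphylococcus strains, and in TSB for Shigella. UPEC also tested in LPM/30 mM MES pH 5.5.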

CC1COc2c(N3CCN(C)CC3)c(F)cc3c(=O)c(C(=O)O)cn1c23 (centres unmarked) [Ofloxacin]
Regrowth, OD600 at 6h or 8h after dilution into drug-free medium ([1]; concentration 0.1): 0.643
Regrowth, OD600 at 6h or 8h after dilution into drug-free medium ([1]; concentration 0.5): 0.590
Regrowth, OD600 at 6h or 8h after dilution into drug-free medium ([1]; concentration 2.5): 0.519
Regrowth, OD600 at 6h or 8h after dilution into drug-free medium ([1]; concentration 10): 0.417
pEC50 ([1]; Staphylococcus aureus, DSM2569, regrowth delay of non-growing bacteria, 1:4 CA-MHB pH 7.4, 24 h treatment, OD600 8 h after dilution, read-out: EC50): 4.85
log10(CFU/ml) after treatment (non-growing UPEC CFT073 [2]; concentration 0.25): 9.204 log10(CFU/ml) and 8.602 log10(CFU/ml) and 8.778 log10(CFU/ml)
log10(CFU/ml) after treatment (non-growing UPEC CFT073 [2]; concentration 0.5): 9.041 log10(CFU/ml) and 8.301 log10(CFU/ml) and 8.699 log10(CFU/ml)
log10(CFU/ml) after treatment (non-growing UPEC CFT073 [2]; concentration 1): 9.204 log10(CFU/ml) and 8.778 log10(CFU/ml) and 8.602 log10(CFU/ml)
log10(CFU/ml) after treatment (non-growing UPEC CFT073 [2]; concentration 2.5): 9.204 log10(CFU/ml) and 8.845 log10(CFU/ml) and 8.699 log10(CFU/ml)
log10(CFU/ml) after treatment (non-growing UPEC CFT073 [2]; concentration 5): 8.477 log10(CFU/ml) (2×) and 8.301 log10(CFU/ml)
log10(CFU/ml) after treatment (non-growing UPEC CFT073 [2]; concentration 10): 8.544 log10(CFU/ml) and 8.230 log10(CFU/ml) and 8.176 log10(CFU/ml)
Regrowth, OD600 at 6h or 8h after dilution into drug-free medium (non-growing UPEC CFT073 [3]; E. coli in 1:4 CA-MHB (pH 7.4), concentration 0.25): 0.670
Regrowth, OD600 at 6h or 8h after dilution into drug-free medium (non-growing UPEC CFT073 [3]; E. coli in 1:4 CA-MHB (pH 7.4), concentration 0.5): 0.686
Regrowth, OD600 at 6h or 8h after dilution into drug-free medium (non-growing UPEC CFT073 [3]; E. coli in 1:4 CA-MHB (pH 7.4), concentration 1): 0.685
Regrowth, OD600 at 6h or 8h after dilution into drug-free medium (non-growing UPEC CFT073 [3]; E. coli in 1:4 CA-MHB (pH 7.4), concentration 2.5): 0.648
Regrowth, OD600 at 6h or 8h after dilution into drug-free medium (non-growing UPEC CFT073 [3]; E. coli in 1:4 CA-MHB (pH 7.4), concentration 5): 0.610
Regrowth, OD600 at 6h or 8h after dilution into drug-free medium (non-growing UPEC CFT073 [3]; E. coli in 1:4 CA-MHB (pH 7.4), concentration 10): 0.563
Regrowth, OD600 at 6h or 8h after dilution into drug-free medium (non-growing UPEC CFT073 [3]; E. coli in 1:4 CA-MHB (pH 7.4), concentration 30): 0.271
Regrowth, OD600 at 6h or 8h after dilution into drug-free medium (non-growing UPEC CFT073 [3]; E. coli in LPM (pH 5.5), concentration 0.25): 0.591
Regrowth, OD600 at 6h or 8h after dilution into drug-free medium (non-growing UPEC CFT073 [3]; E. coli in LPM (pH 5.5), concentration 0.5): 0.585
Regrowth, OD600 at 6h or 8h after dilution into drug-free medium (non-growing UPEC CFT073 [3]; E. coli in LPM (pH 5.5), concentration 1): 0.589
Regrowth, OD600 at 6h or 8h after dilution into drug-free medium (non-growing UPEC CFT073 [3]; E. coli in LPM (pH 5.5), concentration 2.5): 0.574
Regrowth, OD600 at 6h or 8h after dilution into drug-free medium (non-growing UPEC CFT073 [3]; E. coli in LPM (pH 5.5), concentration 5): 0.582
Regrowth, OD600 at 6h or 8h after dilution into drug-free medium (non-growing UPEC CFT073 [3]; E. coli in LPM (pH 5.5), concentration 10): 0.564
Regrowth, OD600 at 6h or 8h after dilution into drug-free medium (non-growing UPEC CFT073 [3]; E. coli in LPM (pH 5.5), concentration 30): 0.570
MIC (P. aeruginosa DSM1117): 8 µM (≈ 2.89 µg/mL)
